Test results published in US7189754B2, “Pyrrolidine ester derivatives with oxytocin modulating activity” (Applied Research Systems ARS Holding NV, priority 2001, dated 2007).

target: T1, human Oxytocin (hOT) receptor (Homo sapiens, UniProt P30559); experiment: In vitro competition binding assay on hOT receptor with scintillation proximity assay ([125I]-OVTA); settings: HEK293EBNA membranes expressing hOT receptor, 0.2 nM [125I]-OVTA, SPA; read-out: Binding affinity human OT-R IC50
T1 construct: expressed in transfected cells; host or cells: HEK293EBNA
T1 sequence (P30559 1-389): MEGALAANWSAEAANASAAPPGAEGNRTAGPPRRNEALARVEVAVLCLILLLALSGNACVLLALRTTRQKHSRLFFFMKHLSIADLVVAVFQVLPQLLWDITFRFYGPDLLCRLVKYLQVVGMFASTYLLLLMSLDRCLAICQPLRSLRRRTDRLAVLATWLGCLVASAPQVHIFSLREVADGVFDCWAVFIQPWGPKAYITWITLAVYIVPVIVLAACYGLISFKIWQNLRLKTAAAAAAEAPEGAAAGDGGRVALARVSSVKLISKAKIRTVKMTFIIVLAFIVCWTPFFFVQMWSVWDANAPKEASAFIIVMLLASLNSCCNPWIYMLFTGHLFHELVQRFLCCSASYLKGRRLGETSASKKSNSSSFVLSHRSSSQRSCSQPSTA
Protocol: a) In Vitro Competition Binding Assay on hOT Receptor with Scintillation Proximity Assay (see Cook, N. D. et al. Pharmaceutical Manufacturing International 1992; p.49–53)
This assay allows to determine the affinity of the test compounds for the human Oxytocin (hOT) receptor. Membranes from HEK293EBNA (cells expressing the hOT receptor) were suspended in buffer containing 50 mM Tris-HCl, pH 7.4, 5 mM MgCl2 and 0.1% BSA (w/v). The membranes (2–4 μg) were mixed with 0.1 mg SPA bead coated with wheat-germ aglutinin (WGA-PVT-Polyethylene Imine beads from Amersham) and 0.2 nM of the radiolabelled [^125I]-OVTA (OVTA being Ornithin Vasoactive, an analogue of OT for competitive binding experiments). Non-specific binding was determined in the presence of 1 μM Oxytocin. The total assay volume was 100 μl. The plates (Corning® NBS plate) were incubated at room temperature for 30 min and counted on a Mibrobeta® plate scintillation counter. Competitive binding was performed in presence of compounds of formula (I) at the following concentrations: 30 μM, 10 μM, 1 μM, 300 nM, 100 nM, 10 nM, 1 nM, 100 pM, 10 pM. The competitive binding data were analysed using the iterative, nonlinear, curve-fitting program, “Prism” (GraphPad Software, Inc).
The ability of the pyrrolidine derivatives of formula (I) to inhibit the binding of ^125I-OVTA to the OT-receptor was assessed using the above described in vitro biological assay. Representative values for some example compounds are given in Table 1, where the binding affinity of the compounds is expressed by the IC50 (μM) which is the concentration upon which 50% inhibition of OT-R is achieved. From these values, it can be derived that said test compounds according to formula (I) do show a significant binding to the oxytocin receptor.

Compound	IC50
CON=C1C[C@@H](C(=O)OC)N(C(=O)c2ccc(-c3ccccc3)cc2)C1 (mixture of isomers) [Methyl (2S,4EZ)-1-([1,1′-biphenyl]-4-ylcarbonyl)-4-(methoxyimino)-2-pyrrolidinecarboxylate]	45 nM
CON=C1C[C@@H](C(=O)OC)N(C(=O)c2ccc(-c3ccccc3F)cc2)C1 (mixture of isomers) [Methyl (2S,4EZ)-4-(methoxyimino)-1-[(2′-fluoro[1,1′-biphenyl]-4-yl)carbonyl]-2-pyrrolidinecarboxylate]	100 nM
CON=C1C[C@@H](C(=O)OC)N(C(=O)c2ccc(-c3ccccc3C)cc2)C1 [Methyl (2S,4EZ)-4-(methoxyimino)-1-[(2′-methyl[1,1′-biphenyl]-4-yl)carbonyl]-2-pyrrolidinecarboxylate]	28 nM
